Laboratory results as given in patent US7169785B2, “Methods and compositions of novel triazine compounds” (Reddy US Therapeutics, Inc., priority 2001, dated 2007).
Like-named read-outs stand apart in the source and are kept apart here.

How the values were obtained:
HAEC = assay: Toxicity to endothelial cells (HAEC) when TNF stimulated; format: cell-based; details: TNF-stimulated HAEC, compound @ 10 uM
Experimental: Human aortic endothelial cells (HAEC, Clonetics) were cultured according to manufacturer in growth medium (Clonetics): basal medium containing human epidermal growth factor, hydrocortisone, vascular endothelial growth factor, heparin binding growth factor-B, long R3-insulin-like growth factor-1, ascorbic acid, gentamicin/amphotericin and 5% FBS. These cell were allowed to reach at least 90% confluency before subjected to experimental treatments. Glycated human serum albumin (G-HSA) was from US Biologicals. Tumor necrosis factor α was from R&D Systems.
[…] All treatments, compound-added and controls were carried out in serum free media containing 0.2% albumin. Media from all conditions were collected and used for IL-6 ELISA.

IL-6 [1] = assay: TNF-α-induced IL-6 production determined by IL-6 ELISA in HAEC; format: cell-based, human; details: HAEC; for Inhibition of TNF-induced IL6 production: class of % of control IL6 production
[2] = test system: Human aortic smooth muscle cells; assay: Smooth muscle cell proliferation assay (anti-proliferation assay, perlecan); format: cell-based; details: Homo sapiens, anti-proliferation assay (perlecan)
Experimental: Human aortic smooth muscle cells (Clonetics) were used. Cells were grown in basal medium containing 5% fetal bovine serum supplemented with growth factors, basic fibroblast growth factor, epidermal growth factor and insulin. […] The cells were then serum starved for 24 h to induce quiescence. Fresh growth medium containing no compound or 10 μM compound was then added and further incubated for 24 h. Cell number was determined by using a cell proliferation assay kit (Celltiter96 AQueous from Promega).

heparanase = assay: Induction and measurement of endothelial heparanase protein (TNF-induced heparanase secretion); format: cell-based, human; details: for inhibition at 5 µM / inhibition at 10 µM: Homo sapiens; for Relative Activity: inhibition of TNF-induced heparanase secretion, scale at 5 uM compound concentration
Experimental: Experiments were carried out on human microvascular endothelial cells (HMVEC) grown in 48-well plates (˜90% confluency). To induce heparanase activity, culture media was replaced with 200 μl Dulbecco's Modified Eagle's medium (DMEM) complemented with 1% bovine serum albumin (BSA) and with or without stimulants (5 ng/ml TGF-alpha, 1 ng/ml IL 1alpha, 200 ng/ml VEGF or other stimulants, cytokines, or inducers as required). The secreted proteins were analyzed by SDS/PAGE and heparanase protein was detected by immunoblotting using polyclonal anti-human heparanase antibody. The changes of heparanase expression determined by densitometric analysis. The induction and measurement of endothelial heparanase protein reported in the Tables herein were carried out according to this Example.

IL-6 [3] = assay: AGE (G-HSA)-induced inflammatory response determined by IL-6 ELISA in HAEC; format: cell-based, human; details: for activity at 10 µM: 24 h, IL6, read-out: % IL6 production compare to AGE stimulation of IL6 (100%); for IC50: IL6, unit inferred, read-out: IC50 (AGE stimulation of IL6)
How it was run: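 Human aortic endothelial cells grown to ≥90% confluence, then treated with compounds and stimuli in serum-free medium with 0.2% albumin. Secreted IL-6 in collected media measured by sandwich ELISA (2 ug/ml capture, 200 ng/ml biotinylated detection antibody, streptavidin-HRP), read at 450 nm.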

[4] = Homo sapiens, 24 h, Compds tested @ 10 uM, IL6, read-out: % IL6 production compare to TNF stimulation of IL6 (100%)
[5] = Homo sapiens, Compds tested @ 10 uM

**Q.** Which cells floating (HAEC) does the source give for CCN(CC)c1ccc(Nc2nc(NCC3CCCN3CC)nc(NC3CCCCCC3)n2)cc1Cl (centres unmarked) [Compound 26, N^2-[3-chloro-4-(diethylamino)phenyl]-N^4-cycloheptyl-N^6-[(1-ethyl-2-pyrrolidinyl)methyl]-1,3,5-triazine-2,4,6-triamine] here?
**A.** > 50%

**Q.** What about the activity at 10 µM (IL-6 [1]; [4]) of the same compound?
**A.** 1%

**Q.** And the IC50 ([2]; read-out: Activity (note 1))?
**A.** > 7 µM

**Q.** What about the IC50 ([2]; read-out: Avg IC-50) of the same compound?
**A.** 7.73 µM

**Q.** What does the source list for CCN1CCCC1CNc1nc(Nc2ccccc2C)nc(NC2CCCCCC2)n1 (centres unmarked) [Compound 35, N^2-cycloheptyl-N^4-[(1-ethyl-2-pyrrolidinyl)methyl]-N^6-(2-methylphenyl)-1,3,5-triazine-2,4,6-triamine]?
**A.** inhibition at 5 µM (heparanase): 53%; Relative Activity (heparanase): ++ (30–40% inhibition); activity at 10 µM (IL-6 [3]; [5]): 4%; activity at 10 µM (IL-6 [1]; [4]): 34%

**Q.** Which results are given for CCN1CCCC1CNc1nc(Nc2ccc(OC)c(F)c2)nc(NC(C)(C)C)n1 (centres unmarked) [Compound 52, N^2-(tert-butyl)-N^4-[(1-ethyl-2-pyrrolidinyl)methyl]-N^6-(3-fluoro-4-methoxyphenyl)-1,3,5-triazine-2,4,6-triamine]?
**A.** inhibition at 10 µM (heparanase; @ 10 uM): 40 to 60%; Relative Activity (heparanase): + (0–30% inhibition); activity at 10 µM (IL-6 [3]; [5]): 35%; activity at 10 µM (IL-6 [1]; [4]): 1%

**Q.** Which inhibition at 10 µM (heparanase; @ 10 uM) does the source give for CCN1CCCC1CNc1nc(Nc2ccc(OC)c(F)c2)nc(N2CCCCCC2)n1 (centres unmarked) [Compound 58, N^2-[(1-ethyl-2-pyrrolidinyl)methyl]-N^4-(3-fluoro-4-methoxyphenyl)-N^6-hexahydro-1H-azepin-1-yl-1,3,5-triazine-2,4-diamine] here?
**A.** 40 to 60%

**Q.** What about the “Relative Activity” value (heparanase) of the same compound?
**A.** + (0–30% inhibition)

**Q.** And the activity at 10 µM (IL-6 [3]; [5])?
**A.** 30%

**Q.** And the activity at 10 µM (IL-6 [1]; [4])?
**A.** 1%

**Q.** Which results are given for CCN1CCCC1CNc1nc(Nc2ccc(OC)c(F)c2)nc(N2CCC[C@H]2COC)n1 (some centres unmarked) [Compound 61]?
**A.** Activity, inhibition of TNF-induced heparanase secretion (heparanase; @ 10 uM): 40–60% inhibition @ 10 uM; Relative Activity (heparanase): + (0–30% inhibition); % IL6 production compare to AGE stimulation of IL6 (100%) (IL-6 [3]; Compds tested @ 10 uM, IL6): 38%; IC50 (IL-6 [3]): 6.47 µM; % IL6 production compare to TNF stimulation of IL6 (100%) (IL-6 [1]; Compds tested @ 10 uM, IL6): 2%; Inhibition of TNF-induced IL6 production (IL-6 [1]): ++++ (between 0 and about 25% of IL6 production compared to cells that did not receive compound (or per cent of control IL6 production))

**Q.** Which inhibition at 5 µM (heparanase) does the source give for CCNc1nc(Nc2ccc(OC)c(F)c2)nc(NC2CCCCCC2)n1 [Compound 76, N^2-cycloheptyl-N^4-ethyl-N^6-(3-fluoro-4-methoxyphenyl)-1,3,5-triazine-2,4,6-triamine] here?
**A.** 50%

**Q.** What about the “Relative Activity” value (heparanase) of the same compound?
**A.** ++ (30–40% inhibition)

**Q.** And the activity at 10 µM (IL-6 [1]; [4])?
**A.** 18%

**Q.** For COc1ccc(Nc2nc(NC3CCCCCC3)nc(N3CCCC3)n2)cc1F [Compound 82, N^2-cycloheptyl-N^4-(3-fluoro-4-methoxyphenyl)-6-(1-pyrrolidinyl)-1,3,5-triazine-2,4-diamine], which inhibition at 5 µM (heparanase) is on record?
**A.** 73%

**Q.** And the “Relative Activity” value (heparanase)?
**A.** +++ (70–100% inhibition)

**Q.** What about the activity at 10 µM (IL-6 [1]; [4]) of the same compound?
**A.** 34%

**Q.** For COc1ccc(Nc2nc(NC3CCCCCC3)nc(N3CCN(C)CC3)n2)cc1F [Compound 87, N^2-cycloheptyl-N^4-(3-fluoro-4-methoxyphenyl)-6-(4-methyl-1-piperazinyl)-1,3,5-triazine-2,4-diamine], which inhibition at 10 µM (heparanase; @ 10 uM) is on record?
**A.** 40 to 60%

**Q.** What about the “Relative Activity” value (heparanase) of the same compound?
**A.** + (0–30% inhibition)

**Q.** And the activity at 10 µM (IL-6 [3]; [5])?
**A.** 5%

**Q.** For COc1ccc(Nc2nc(NC3CCCCCC3)nc(N3CCN(CC(=O)N4CCCC4)CC3)n2)cc1F [Compound 94, N^2-cycloheptyl-N^4-(3-fluoro-4-methoxyphenyl)-6-{4-[2-oxo-(1-pyrrolidinyl)ethyl]-1-piperazinyl}-1,3,5-triazine-2,4-diamine], which inhibition at 10 µM (heparanase; @ 10 uM) is on record?
**A.** 40 to 60%

**Q.** What about the “Relative Activity” value (heparanase) of the same compound?
**A.** + (0–30% inhibition)

**Q.** And the activity at 10 µM (IL-6 [3]; [5])?
**A.** 10%

**Q.** And the IC50 (IL-6 [3]; Homo sapiens)?
**A.** 5.8 µM

**Q.** And the activity at 10 µM (IL-6 [1]; [4])?
**A.** 32%

**Q.** What does the source list for COc1ccc(Nc2nc(NC(C)C)nc(N(C)C3CCNCC3)n2)cc1Cl [Compound 107, N^2-(3-chloro-4-methoxy-phenyl)-N^4-isopropyl-N^6-methyl-N^6-piperidin-4-yl-1,3,5-triazine-2,4,6-triamine]?
**A.** melting point: 129 °C; Inhibition of TNF-induced IL6 production (IL-6 [1]): ++ (between about 50 and about 75% of control IL6 production); activity at 5 µM (IL-6 [1]; Homo sapiens, 24 h, read-out: % IL6 production compare to TNF stimulation of IL6 (100%), @ 5 uM, IL6): 60%

**Q.** For COc1ccc(Nc2nc(NCCCCCO)nc(N(C)C3CCNCC3)n2)cc1Cl [Compound 109, 5-[4-(3-chloro-4-methoxy-phenylamino)-6-(methyl-piperidin-4-yl-amino)-1,3,5-triazin-2-ylamino]-pentan-1-ol], which melting point is on record?
**A.** 101 °C

**Q.** And the “Inhibition of TNF-induced IL6 production” value (IL-6 [1])?
**A.** +++ (between about 25 and about 50% of control IL6 production)

**Q.** What about the activity at 10 µM (IL-6 [1]; Homo sapiens, 24 h, read-out: % IL6 production compare to TNF stimulation of IL6 (100%), Compds tested @ 10 uM, IL6) of the same compound?
**A.** 40%

**Q.** Which melting point does the source give for CCN1CCCC1CNc1nc(Nc2ccc(OC)c(F)c2)nc(OCC2CCCCC2)n1 (centres unmarked) [Compound 116, 6-Cyclohexylmethoxy-N-(1-ethyl-pyrrolidin-2-ylmethyl)-N′-(3-fluoro-4-methoxy-phenyl)-[1,3,5]triazine-2,4-diamine] here?
**A.** 59 °C

**Q.** For COc1ccc(Nc2nc(Cl)nc(OCC3CCCCC3)n2)cc1Cl [Compound 117, (4-Chloro-6-cyclohexylmethoxy-[1,3,5]triazin-2-yl)-(3-chloro-4-methoxy-phenyl)-amine], which melting point is on record?
**A.** 114 °C

**Q.** For COc1ccc(Nc2nc(Nc3ccc(OC)c(Cl)c3)nc(OCC3CCCCC3)n2)cc1Cl [Compound 118, N,N′-Bis-(3-chloro-4-methoxy-phenyl)-6-cyclohexylmethoxy-1,3,5-triazine-2,4-diamine], which melting point is on record?
**A.** 188 °C

**Q.** For COc1ccc(Nc2nc(Nc3ccc(OC)c(Cl)c3)nc(NC3CCCCCC3)n2)cc1Cl [Compound 122, N,N′-Bis-(3-chloro-4-methoxy-phenyl)-N″-cycloheptyl-[1,3,5]triazine-2,4,6-triamine], which melting point is on record?
**A.** 183 °C

**Q.** Which melting point does the source give for COc1ccc(Nc2nc(Cl)nc(Cl)n2)cc1F [Compound 124, (4,6-Dichloro-[1,3,5]triazin-2-yl)-(3-fluoro-4-methoxy-phenyl)-amine] here?
**A.** 134 °C

**Q.** What does the source list for COc1ccc(Nc2nc(Cl)nc(NCC3CCCCC3)n2)cc1F [Compound 125, 6-Chloro-N-cyclohexylmethyl-N′-(3-fluoro-4-methoxy-phenyl)-[1,3,5]triazine-2,4-diamine]?
**A.** melting point: 156 °C; IC50 ([2]; read-out: Activity (note 1)): > 7 µM; IC50 ([2]; read-out: Avg IC-50): 10 µM

**Q.** For CCN1CCCC1CNc1nc(NCC2CCCCC2)nc(Nc2ccc(OC)c(F)c2)n1 (centres unmarked) [Compound 126, N-Cyclohexylmethyl-N′-(1-ethyl-pyrrolidin-2-ylmethyl)-N″-(3-fluoro-4-methoxy-phenyl)-[1,3,5]triazine-2,4,6-triamine], which melting point is on record?
**A.** 72 °C

**Q.** With COc1ccc(Nc2nc(NC3CCCCCC3)nc(N(C)C3CCNCC3)n2)cc1Cl [Compound 146, N^2-(3-chloro-4-methoxy-phenyl)-N^4-cycloheptyl-N^6-methyl-N^6-piperidin-4-yl-1,3,5-triazine-2,4,6-triamine] as the compound, how does the melting point read?
**A.** 114 to 116 °C

**Q.** What about the IC50 ([2]; read-out: Activity (note 1)) of the same compound?
**A.** < 3 µM

**Q.** What about the IC50 ([2]; read-out: Avg IC-50) of the same compound?
**A.** ~2.2 µM

**Q.** Which melting point does the source give for COc1ccc(Nc2nc(O)nc(NC3CCCCCC3)n2)cc1Cl [Compound 147, 4-(3-Chloro-4-methoxy-phenylamino)-6-cycloheptylamino-1,3,5-triazin-2-ol] here?
**A.** > 310 °C

**Q.** With COc1ccc(Nc2nc(NC3CCCCCC3)nc(OC3CCCN(C(C)=O)C3)n2)cc1Cl (centres unmarked) [Compound E20, 1-[3-{4-(3-chloro-4-methoxyanilino)-6-cycloheptylamino-1,3,5-triazine-2-yloxy}piperidino]-1-ethanone] as the compound, how does the melting point read?
**A.** 138 to 140 °C

**Q.** With COc1ccc(Nc2nc(NC3CCCCCC3)nc(OC(C)C)n2)cc1Cl [Compound E21, N^2-(3-chloro-4-methoxyphenyl)-N^4-cycloheptyl-6-isopropoxy-1,3,5-triazine-2,4-diamine] as the compound, how does the melting point read?
**A.** 136 to 138 °C

**Q.** Which melting point does the source give for COc1ccc(Nc2nc(NC3CCCCCC3)nc(OCC3CCCN3)n2)cc1Cl (centres unmarked) [Compound E22, N^2-(3-chloro-4-methoxyphenyl)-N^4-cycloheptyl-6-(2-azolanylmethoxy)-1,3,5-triazine-2,4-diamine] here?
**A.** 84 to 86 °C

**Q.** With COc1ccc(Nc2nc(NC3CCCCCC3)nc(Oc3ccccc3F)n2)cc1Cl [Compound E28, N^2-(3-chloro-4-methoxyphenyl)-N^4-cycloheptyl-6-(2-fluorophenoxy)-1,3,5-triazine-4,2-diamine] as the compound, how does the melting point read?
**A.** 98 to 100 °C
